According to patent US20240238232A1, “COMPOSITIONS AND METHODS FOR THE REDUCTION OR TREATMENT OF INSULIN RESISTANCE AND METABOLIC CONDITIONS” (AXCELLA HEALTH INC., priority 2018, published 2024):

Experiments:
Type in all cases: in vivo
[1] = tested on: FATZO mouse model; experiment: Liver histology: NAFLD activity score, steatosis, inflammation, ballooning in FATZO mice on WDF, Example 5; details: 4 weeks
Description: (§1) NASH was induced in 60 male FATZO mice by a western diet (Research Diet #D12079B; fat 40% kcal, protein 17% kcal, carbohydrate 43% kcal) supplemented with 500 fructose in the drinking water (WDF) during a 16 week induction phase. Diets and water were available ad libitum. Littermate control male FATZO mice fed with a control diet (n=6, Purina #5008; fat 17% kcal, protein 27% kcal, carbohydrate 56% kcal) and sterile water were set up for control purpose. Mice were housed in plastic cages with microisolator. Sterilized bedding was replaced once a week. Mice were housed three per cage and maintained on a twelve hour light cycle throughout study duration. Room temperature was monitored daily and maintained at 22-25° C. Body weight was recorded every week during the induction phase.
(§2) Following 16 weeks diet induction, 6 mice remained on control diet (group 1, Control) while 60 induced mice were randomized on body weight and plasma glucose (fed) for assignment to the following treatments. FATZO mice were administered with test articles starting at 16 weeks post western diet NASH induction for 4 weeks. Test articles were administered by oral gavage. Animals were euthanized at 20 weeks post western diet NASH induction, and tissues were harvested for analysis.
(§3) […], […]+G, LRQNAC, OCA and Vehicle were administered by oral gavage at a volume of 10 mL/kg throughout the study. Dosages were calculated by daily body weight. […], […]+G, LRQNAC, and Vehicle were administered twice per day (BID), while OCA was administered once a day (QD) in the morning. Mice receiving OCA once per day (QD), and one vehicle QD. Doses were administered by oral gavage at 0700 and 1800 by oral gavage for 4 weeks.
The liver tissues were fixed in Bouin's solution at 4° C. for 24 hours followed by baths of standard concentrations of alcohol then xylene to prepare the tissues for paraffin embedding.
After being embedded in paraffin and cooled, five-micron sections were cut and stained for routine H&E and Picric Sirius Red. A section of both right and left lobes of the livers were frozen in OCT for analysis of lipid content with Oil-Red-) staining. The Aperio whole slide digital imaging system (Scan Scope C S, Vista, CA) was used for imaging. All slides were imaged at 20×. The scan time ranged from 1.5 minutes to a maximum time of 2.25 minutes. The whole images were housed and stored in their Spectrum software system and images were shot from the whole slides.
The livers were evaluated using the NASH liver criteria for scoring. In this mouse study, one cross section of liver for each case was analyzed with the NASH score system. According to the published NASH CRN Scoring System, this scoring system comprises of NAFLD Activity Score (NAS), fibrosis stage and identification of NASH by pattern recognition. The NAS can range from 0 to 8 and is calculated by the sum of scores of steatosis (0-3), lobular inflammation (0-3) and hepatocyte ballooning (0-2) from H&E stained sections. Fibrosis was scored (0-4) from picrosirius red stained slides. […] Steatosis, lobular inflammation, hepatocyte. balloon degeneration, fibrosis, NAS and the presence of NASH by pattern recognition were systematically assessed. In this study we evaluated one total cross section of liver per mouse in this study. […] The pathology score was determined as 0, +1, +2, or +3. The lesions were scored on location (periportal, centrilobular, and mid zonal) and fat accumulation (focal, periportal, and/or centrilobular). […]

[2] = tested on: FATZO mouse model; experiment: Body weight, liver weight and clinical observations in FATZO mice on WDF, Example 5; details: oral gavage 4 weeks, LIVRQNAC 3000 mg/kg, LIVRQNAC+G 3,885 mg/kg, LRQNAC 2,469 mg/kg BID, OCA QD
Description: NASH was induced in 60 male FATZO mice by a western diet (Research Diet #D12079B; fat 40% kcal, protein 17% kcal, carbohydrate 43% kcal) supplemented with 500 fructose in the drinking water (WDF) during a 16 week induction phase. Diets and water were available ad libitum. Littermate control male FATZO mice fed with a control diet (n=6, Purina #5008; fat 17% kcal, protein 27% kcal, carbohydrate 56% kcal) and sterile water were set up for control purpose. Mice were housed in plastic cages with microisolator. Sterilized bedding was replaced once a week. Mice were housed three per cage and maintained on a twelve hour light cycle throughout study duration. Room temperature was monitored daily and maintained at 22-25° C. Body weight was recorded every week during the induction phase. […]
(§4) […], […]+G, LRQNAC, OCA and Vehicle were administered by oral gavage at a volume of 10 mL/kg throughout the study. Dosages were calculated by daily body weight. […]
(§5) The viability, clinical signs and behavior were monitored daily. Body weight was recorded daily during the dosing period. […]
Animals were anesthetized with CO2 inhalation and exsanguinated via cardiac puncture for euthanasia. […] Organ weights (total liver, gonadal fat pads) were recorded. […]

[3] = tested on: FATZO mouse model; experiment: Blood glucose in FATZO mice on WDF, Example 5; details: oral gavage 4 weeks, LIVRQNAC 3000 mg/kg, LIVRQNAC+G 3,885 mg/kg, LRQNAC 2,469 mg/kg BID, OCA QD
Description: as §1
as §2, with “Test articles were administered by oral gavage. Animals were euthanized at 20 weeks post western diet NASH induction, and tissues were harvested for analysis.” left out
as §4, §5

[4] = tested on: FATZO mouse model; experiment: Liver triglyceride and cholesterol content in FATZO mice on WDF, Example 5; details: 4 weeks
Description: as §1, §2, §3
Liver triglyceride and cholesterol content were similarly elevated after WDF feeding compared to vehicle treated animals fed control diet (liver triglyceridep<00.0040; liver cholesterol: p<0.0001). Among animals fed WDF, there were no significant differences in liver triglyceride (p<0.1206) when compared to vehicle for any treatment group. […]

[5] = oral, LIVRQNAC + G 3885 mg/kg, LRQNAC 2469 mg/kg, OCA 30 mg/kg/day
[6] = score 0-3, oral, LIVRQNAC + G 3885 mg/kg, LRQNAC 2469 mg/kg, OCA 30 mg/kg/day

**Q.** `CC[C@H]1[C@@H](O)[C@@H]2[C@H](CC[C@]3(C)[C@@H]([C@H](C)CCC(=O)O)CC[C@@H]23)[C@@]2(C)CC[C@@H](O)C[C@@H]12` [OCA, 6α-ethyl-chenodeoxycholic acid] was tested. Which “NAFLD activity score (NAS) compared to vehicle” value [1] did it give?
**A.** Its value is “no significant effect”.

**Q.** And the “Liver Pathology NAS” value [1, 5]?
**A.** The value was 3.72 ± 0.147.

**Q.** And the “Liver Pathology Ballooning” value ([1]; score 0-2, oral, LIVRQNAC + G 3885 mg/kg, LRQNAC 2469 mg/kg, OCA 30 mg/kg/day)?
**A.** Its value is 0.94 ± 0.056.

**Q.** What about the “Liver Pathology Inflammation” value [1, 6] of the same compound?
**A.** The value was 1.0 ± 0.0.

**Q.** What about the “Liver Pathology Steatosis” value [1, 6] of the same compound?
**A.** The value was 1.78 ± 0.147.

**Q.** What about the “Liver weight (% body weight)” value [2] of the same compound?
**A.** The value was 6.81±0.2 % body weight.

**Q.** And the “Average blood glucose over the dosing period” value [3]?
**A.** The value was 169.7 ± 6.3 mg/dL.

**Q.** What about the “Reduction of liver cholesterol content compared to vehicle” value [4] of the same compound?
**A.** Its value is 32%.

**Q.** And the “Liver Cholesterol” value [4, 5]?
**A.** The value was 5.63 ± 0.495.

**Q.** And the “Liver Triglyceride” value [4, 5]?
**A.** Its value is 49.81 ± 1.63.
